Assay results as given in US11400106B2, “Methods for inhibiting microbe growth” (priority 2018, dated 2022).
Like-named read-outs stand apart in the source and are kept apart here. Marks after values point to notes of the source that are not given here. Where a SMILES comes first, the peptide text is derived from it.

What was measured:
S. aureus = experiment: microbe, parasite or virus in culture; conditions: for MIC: Staphylococcus aureus, 18 h, read-out: MIC, S. aureus, MHB−; for Fold, S. aureus: fold shift in MIC
Description: (§1) In the following experiments, bacterial cells were cultured in 96-well microtiter plates in cation-adjusted Mueller-Hinton Broth (MHB) for 18 h at 37° C. The main strains used were E. coli (K-12 BW25113) (placed in stationary incubator) and S. aureus (Newman Strain) (incubated at 250 r.p.m). Knockout strains (ΔtolcC and ΔychM) were used from the Keio knockout collection (Baba et al., Construction of Escherichia coli K-12 in-frame, single-gene knockout mutants: the Keio collection. Mol Syst Biol 2, 2006 0008, doi:10.1038/msb4100050 (2006)). For MIC determination and checkerboard analyses, Clinical & Laboratory Standards Institute (CLSI) protocol was used. […] DiSC3 loading of S. aureus cells was performed as previously described (Farha et al., Collapsing the proton motive force to identify synergistic combinations against Staphylococcus aureus. Chemistry & biology 20, 1168-1178, doi:10.1016/j.chembiol.2013.07.006 (2013)). CCCP concentration of 20 μM was used. pH adjustments were made by addition of HCl or NaOH. INT assay and ATP bioluminescence assays were performed as previously described (Farha et al., Collapsing the proton motive force to identify synergistic combinations against Staphylococcus aureus. Chemistry & biology 20, 1168-1178, doi:10.1016/j.chembiol.2013.07.006 (2013)). For chemical-genomic studies, the Keio library was grown overnight in cation-adjusted MHB broth, in 384-well plates. From these, treatment plates (25 mM sodium bicarbonate, or a sterile water control) were inoculated and grown for 15 hours at 37° C., in a stationary incubator. Data was normalized according to Mangat et al (Mangat et al., Rank ordering plate data facilitates data visualization and normalization in high-throughput screening. J Biomol Screen 19, 1314-1320, doi:10.1177/1087057114534298 (2014)), with gene products and GO terms mined from EcoCyc. The GFP promoter library (Keseler et al., EcoCyc: fusing model organism databases with systems biology. Nucleic Acids Res 41, D605-612, doi:10.1093/nar/gks1027 (2013)) was grown for 18 hours at ambient temperature with the same inoculation strategy as with the Keio collection. The analysis pipeline of Zaslaver et al (Zaslaver et al., A comprehensive library of fluorescent transcriptional reporters for Escherichia coli. Nat Methods 3, 623-628, doi:10.1038/nmeth895 (2006)) was used to generate maps of promoter activity, from which lists of promoters with increased or decreased activity were compiled.
(§2) Fold enhancement in MICs in the media supplemented with sodium bicarbonate is represented by a positive fold, whereas suppression of activity is represented by a negative fold.
(§3) The effect of sodium bicarbonate on the activity of additional antibacterial agents was investigated. Clinical isolates of various bacteria were obtained from the ATCC and the IHMA.
(§4) The effect of sodium bicarbonate on the activity of cationic antiseptic agents was investigated. Clinical isolates of various bacteria were obtained from the ATCC and the IHMA.

E. coli = experiment: microbe, parasite or virus in culture; type: cell-based, Escherichia coli; conditions: for MIC: Escherichia coli, 18 h, read-out: MIC, E. coli, MHB−; for Fold, E. coli: fold shift in MIC
Description: as §1, §2, §3, §4

[1] = antibiotic agents, MHB in the absence of sodium bicarbonate
[2] = MHB in the absence of sodium bicarbonate
[3] = MHB in the presence of 25 mM sodium bicarbonate
[4] = antiseptic agents, MHB in the absence of sodium bicarbonate
[5] = antiseptic agents, MHB in the presence of 25 mM sodium bicarbonate
[6] = S. aureus (Newman strain) (MSSA)
[7] = antibiotic agents, MHB in the presence of 25 mM sodium bicarbonate
[8] = antibiotic agents, MHB− vs MHB+

## NC[C@H]1O[C@H](O[C@H]2[C@H](O)[C@@H](O[C@H]3O[C@H](CO)[C@@H](O)[C@H](N)[C@H]3O)[C@H](N)C[C@@H]2N)[C@H](N)C[C@@H]1O [Tobramycin]
S. aureus
  MIC, S. aureus, MHB+: 0.5 μg of antimicrobial agent/mL of buffer
  MIC: 0.25 µg/mL
E. coli
  MIC, E. coli, MHB+: 0.25 μg of antimicrobial agent/mL of buffer
E. coli; [1]
  MIC: 0.25 µg/mL

## Cc1ncc([N+](=O)[O-])n1CCO [Metronidazole]
S. aureus
  MIC: > 128 µg/mL

## CCn1cc(C(=O)O)c(=O)c2cc(F)c(N3CCNCC3)nc21 [Enoxacin]
S. aureus
  MIC, S. aureus, MHB+: 2
  MIC: 1 µg/mL
E. coli; [2]
  MIC: 0.25 µg/mL

## CCCCCCCCCCCCCCCC[N+](C)(C)C.[Br-] [Hexadecyltrimethylammonium bromide]
S. aureus
  MIC, S. aureus, MHB: 0.5 μg of antimicrobial agent/mL of buffer
  MIC, S. aureus, MHB+: 0.25 μg of antimicrobial agent/mL of buffer
E. coli
  MIC, E. coli, MHB: 32 μg of antimicrobial agent/mL of buffer
  MIC, E. coli, MHB+: 8 μg of antimicrobial agent/mL of buffer

## CC[C@H](C)[C@H](N)C1=N[C@H](C(=O)N[C@@H](CC(C)C)C(=O)N[C@H](CCC(=O)O)C(=O)N[C@H](C(=O)N[C@H]2CCCCNC(=O)[C@H](CC(N)=O)NC(=O)[C@@H](CC(=O)O)NC(=O)[C@H](Cc3cnc[nH]3)NC(=O)[C@@H](Cc3ccccc3)NC(=O)[C@H]([C@@H](C)CC)NC(=O)[C@@H](CCCN)NC2=O)[C@@H](C)CC)CS1 [Bacitracin] (HELM PEPTIDE1{[CC[C@H](C)[C@H](N)C1=N[C@H](C(=O)[*:2])CS1].L.[dE].I.K.[NCCC[C@@H](N[*:1])C(=O)[*:2]].I.[dF].H.[dD].N}$PEPTIDE1,PEPTIDE1,5:R3-11:R2$$$V2.0)
S. aureus
  MIC, S. aureus, MHB+: 64
  MIC: 32 µg/mL
E. coli; [2]
  MIC: > 256 µg/mL

## CC1(C)S[C@@H]2[C@H](NC(=O)[C@H](N)c3ccccc3)C(=O)N2[C@H]1C(=O)O [Ampicillin]
S. aureus
  MIC, S. aureus, MHB+: 8
  MIC: 1 µg/mL
E. coli; [2]
  MIC: 16 µg/mL

## CO/N=C(\C(=O)N[C@@H]1C(=O)N2C(C(=O)O)=C(COC(C)=O)CS[C@H]12)c1csc(N)n1 [Cefotaxime]
S. aureus
  MIC, S. aureus, MHB+: 2 μg of antimicrobial agent/mL of buffer
  MIC: 0.5 µg/mL
E. coli
  MIC, E. coli, MHB+: 8 μg of antimicrobial agent/mL of buffer
E. coli; [1]
  MIC: 4 µg/mL

## CN[C@H](CC(C)C)C(=O)N[C@H]1C(=O)N[C@@H](CC(N)=O)C(=O)N[C@H]2C(=O)N[C@H]3C(=O)N[C@H](C(=O)N[C@H](C(=O)O)c4cc(O)cc(O)c4-c4cc3ccc4O)[C@H](O)c3ccc(c(Cl)c3)Oc3cc2cc(c3O[C@@H]2O[C@H](CO)[C@@H](O)[C@H](O)[C@H]2O[C@H]2C[C@](C)(N)[C@H](O)[C@H](C)O2)Oc2ccc(cc2Cl)[C@H]1O [Vancomycin]
S. aureus; [3]
  MIC, S. aureus, MHB+: 4
S. aureus
  MIC: 1 µg/mL
E. coli
  MIC: 256 µg/mL
E. coli; [3]
  MIC, E. coli, MHB+: 256

## CCOc1ccc2ccccc2c1C(=O)N[C@@H]1C(=O)N2[C@@H]1SC(C)(C)[C@@H]2C(=O)O [Nafcillin]
S. aureus
  MIC, S. aureus, MHB+: 1 μg of antimicrobial agent/mL of buffer
  MIC: 0.25 µg/mL
E. coli
  MIC, E. coli, MHB+: 32 μg of antimicrobial agent/mL of buffer
E. coli; [1]
  MIC: 16 µg/mL

## C[C@H]1COc2c(N3CCN(C)CC3)c(F)cc3c(=O)c(C(=O)O)cn1c23 [Levofloxacin]
S. aureus
  MIC, S. aureus, MHB+: 1
  MIC: 0.5 µg/mL
E. coli; [2]
  MIC: 0.0313 µg/mL

## Oc1cc(Cl)ccc1Oc1ccc(Cl)cc1Cl [Triclosan]
S. aureus
  MIC, S. aureus, MHB+: 0.062 μg of antimicrobial agent/mL of buffer
  MIC: 0.062 µg/mL
E. coli
  MIC, E. coli, MHB+: 0.125 μg of antimicrobial agent/mL of buffer
E. coli; [1]
  MIC: 0.125 µg/mL

## NC[C@H]1O[C@H](O[C@H]2[C@H](O)[C@@H](O[C@H]3O[C@H](CO)[C@@H](O)[C@H](N)[C@H]3O)[C@H](N)C[C@@H]2N)[C@H](O)[C@@H](O)[C@@H]1O [Kanamycin]
S. aureus
  MIC, S. aureus, MHB+: 4
  MIC: 8 µg/mL
E. coli; [2]
  MIC: 4 µg/mL

## C[C@@H]1CN(c2c(F)c(N)c3c(=O)c(C(=O)O)cn(C4CC4)c3c2F)C[C@H](C)N1 [Sparfloxacin]
S. aureus
  MIC, S. aureus, MHB+: 0.25 μg of antimicrobial agent/mL of buffer
  MIC: 0.125 µg/mL
E. coli
  MIC, E. coli, MHB+: 32 μg of antimicrobial agent/mL of buffer
E. coli; [1]
  MIC: 16 µg/mL

## COc1cc(Cc2cnc(N)nc2N)cc(OC)c1OC [trimethoprim]
S. aureus; S. aureus, result in words
  effect of 25 mM sodium bicarbonate on antibacterial activity: remained largely unchanged
E. coli
  effect of 25 mM sodium bicarbonate on antibacterial activity: remained largely unchanged

## CC[C@H]1OC(=O)[C@H](C)C(=O)[C@H](C)[C@@H](O[C@@H]2O[C@H](C)C[C@H](N(C)C)[C@H]2O)[C@](C)(OC)C[C@@H](C)C(=O)[C@H](C)[C@H]2N(CCCCn3cnc(-c4cccnc4)c3)C(=O)O[C@]12C [Telithromycin]
S. aureus
  MIC, S. aureus, MHB+: 0.5 μg of antimicrobial agent/mL of buffer
  MIC: 4 µg/mL
E. coli
  MIC, E. coli, MHB+: 16 μg of antimicrobial agent/mL of buffer
E. coli; [1]
  MIC: > 128 µg/mL

## COc1c(N2CCNC(C)C2)c(F)cc2c(=O)c(C(=O)O)cn(C3CC3)c12 (stereo not shown) [Gatifloxacin]
S. aureus
  MIC, S. aureus, MHB+: 8 μg of antimicrobial agent/mL of buffer
  MIC: 4 µg/mL
E. coli
  MIC, E. coli, MHB+: 4 μg of antimicrobial agent/mL of buffer
E. coli; [1]
  MIC: 16 µg/mL

## O=C([O-])O.[K+] [Potassium bicarbonate]
E. coli; E. coli, salt at 25 mM, pH adjusted to 7.4
  MIC of dirithromycin in the presence of the salt: 4 µg/mL

## Polyvinylpyrrolidone iodine complex
S. aureus; [4]
  MIC, S. aureus, MHB: >128 μg of antimicrobial agent/mL of buffer
S. aureus; [5]
  MIC, S. aureus, MHB+: >128 μg of antimicrobial agent/mL of buffer
S. aureus; antiseptic agents
  Fold, S. aureus: 1
E. coli; [4]
  MIC, E. coli, MHB: >128 μg of antimicrobial agent/mL of buffer
E. coli; [5]
  MIC, E. coli, MHB+: >128 μg of antimicrobial agent/mL of buffer
E. coli; antiseptic agents
  Fold, E. coli: 1

## Lysozyme
S. aureus; [6]
  MIC in MHB: >256** μg/mL
  MIC in MHB + 25 mM bicarbonate: >256** μg/mL
E. coli; E. coli, result in words
  effect of 25 mM sodium bicarbonate on antibacterial activity: enhanced

## Cc1onc(-c2ccccc2)c1C(=O)N[C@@H]1C(=O)N2[C@@H]1SC(C)(C)[C@@H]2C(=O)O [Oxacillin]
S. aureus
  MIC, S. aureus, MHB+: 1
  MIC: 0.0625 µg/mL
E. coli; [2]
  MIC: 256 µg/mL

## Furadinozoline
S. aureus; [1]
  MIC, S. aureus, MHB−: 32 μg of antimicrobial agent/mL of buffer
S. aureus; [7]
  MIC, S. aureus, MHB+: 16 μg of antimicrobial agent/mL of buffer
S. aureus; [8]
  Fold, S. aureus: 2
E. coli; [1]
  MIC, E. coli, MHB−: 4 μg of antimicrobial agent/mL of buffer
E. coli; [7]
  MIC, E. coli, MHB+: 4 μg of antimicrobial agent/mL of buffer
E. coli; [8]
  Fold, E. coli: 1

## CC[C@H](C)[C@H](N)C(=O)N[C@@H](CC(C)C)C(=O)N1CCC[C@H]1C(=O)N[C@@H](Cc1c[nH]c2ccccc12)C(=O)N[C@@H](CCCCN)C(=O)N[C@@H](Cc1c[nH]c2ccccc12)C(=O)N1CCC[C@H]1C(=O)N[C@@H](Cc1c[nH]c2ccccc12)C(=O)N[C@@H](Cc1c[nH]c2ccccc12)C(=O)N1CCC[C@H]1C(=O)N[C@@H](Cc1c[nH]c2ccccc12)C(=O)N[C@@H](CCCNC(=N)N)C(=O)N[C@@H](CCCNC(=N)N)C(N)=O [Indolicidin]
S. aureus; S. aureus, 25 mM sodium bicarbonate
  enhancement of antimicrobial activity in the presence of bicarbonate: 16 fold

## CC[C@H]1OC(=O)[C@H](C)[C@@H](O[C@H]2C[C@@](C)(OC)[C@@H](O)[C@H](C)O2)[C@H](C)[C@@H](O[C@@H]2O[C@H](C)C[C@H](N(C)C)[C@H]2O)[C@](C)(O)C[C@@H](C)C(=O)[C@H](C)[C@@H](O)[C@]1(C)O [Erythromycin]
S. aureus
  MIC, S. aureus, MHB+: 1
  MIC: 32 µg/mL
